Reference: patent publication US10583131B2, “Methods of treating pancreatic cancer” (ChemoCentryx, Inc., priority 2016, dated 2020)

How the values were obtained:
[1] = test system: non-resectable pancreatic adenocarcinoma; test: Open-label Phase Ib clinical trial of compound Ib plus FOLFIRINOX, response by RECIST 1.1; format: in vivo, patients; conditions: for Tumor control rate: 12 weeks of treatment, 150 mg twice daily plus FOLFIRINOX; for Progressive disease / Stable disease / Overall response rate: 12 weeks, plus FOLFIRINOX; for Overall response rate: RECIST 1.1, all partial responses
Experimental: Fifty-four patients age 18 years or older were enrolled on an open-label phase 1-b interventional study to evaluate the safety and efficacy of compound Ib in patients with pancreatic adenocarcinoma also receiving FOLFIRINOX chemotherapy. Dosing consisted of 150 mg tablets for oral administration once or twice daily given orally for at least 12 weeks.
Inclusion criteria included: • Histologically or cytologically confirmed non-resectable pancreatic adenocarcinoma with or without metastases • Eastern Cooperative Oncology Group (ECOG) performance status score ≤2 • Anticipated life expectancy a ≥12 weeks • Radiographically measurable disease acc. to RECIST 1.1 • Use of adequate contraception (as described in protocol) • Ability to provide written informed consent and comply with study requirements.
Exclusion criteria included: • Received other cancer treatment or investigational drug within 4 weeks prior to screening • Women who are pregnant or breastfeeding • Had major surgery within 4 weeks of first dose of study drug • Inadequate liver, renal or bone marrow function within 2 weeks of first dose • Serious concurrent illness, altered medical status or any uncontrolled medical condition • Any infection requiring antibiotic or anti-viral treatment within 4 weeks of screening • Known active HIV, HBV or HCV infection • Inability to swallow tablets • History or presence of any medical condition or disease which, in the opinion of the investigator, may place the subject at unacceptable risk for study participation. Initial 12 week overall response rate (ORR) results:
The open-label, multi-center, Phase Ib clinical trial was designed to evaluate the safety and efficacy of orally administered compound Ib plus FOLFIRINOX in 50 patients with non-resectable pancreatic cancer. Patients received 150 mg of compound Ib twice daily for 12 weeks. After 12 weeks, patients who achieved stable disease or better (as measured by Response Evaluation Criteria In Solid Tumors, or RECIST 1.1), were eligible to continue on study for at least an additional 12 weeks unless disease progression occured. Per protocol, the Eastern Cooperative Oncology Group (ECOG) performance status of patients in the trial was 0, 1 or 2.
Patients enrolled in the study had advanced non-resectable pancreatic cancer (78% of patients having metastatic disease), and an Eastern Cooperative Oncology Group (ECOG) Performance Status score of less than or equal to 2. In order to assess the initial treatment effect of compound Ib, the study provided for assessment of overall response rate (ORR) based on computerized tomography (CT) imaging following 12 weeks of treatment.
The pre-specified evaluable ORR population consists of all patients who have at least one post-baseline disease CT assessment. Response rate results at 12 weeks of treatment were as follows: […]

[2] = Pharmacokinetics in Sprague-Dawley rats (i.v. and oral); format: in vivo; conditions: for clearance / bioavailability / AUC: rat, plasma; for clearance: iv, 0.5 mg/kg; for bioavailability: po 2 mg/kg, iv 0.5 mg/kg; for AUC: po, 2 mg/kg
Experimental: Compound Ib and PF-04136309 were dosed intravenously at 0.5 mg/kg and orally at 2 mg/kg, in aqueous hydroxypropyl methylcellulose. Blood samples were collected at predetermined time points after each dosing and the corresponding plasma concentrations of Compound Ib and PF-04136309 were analyzed using an LC-MS/MS method. Plasma concentration-time curves were constructed and the corresponding pharmacokinetic parameters were derived using non-compartmental analysis.
Blood (0.2 mL) was sampled through the jugular vein or cardiac puncture (for terminal point only) at pre-dose, 2, 5, 10, 15, and 30 min, 1, 2, 4, 6, and 8 hours post-dose for i.v. dosing and at pre-dose, 5, 15, and 30 min, 1, 1.5, 2, 4, 6, and 8 hours post-dose for oral dosing. Blood samples were collected into chilled polypropylene tubes containing sodium EDTA as the anticoagulant and plasma was collected through centrifugation (Eppendorf Centrifuge 5417R) at 10,000 rpm and 4° C. for 6 minutes and stored at −20° C. until analysis.
(§1) Plasma samples (50 μL) were extracted with 200 μL acetonitrile containing the internal standard on a linear shaker for 10 min and then centrifuged at 3700 g for 10 min at 4° C. (Allegra X-15R centrifuge, Beckman Coulter, Inc., Fullerton, Calif.). 100 μL of the resulting supernatant was transferred into a new plate and mixed with 100 μL 0.1% formic acid in water for LC-MS/MS analysis.
(§2) Calibration standard samples were prepared with blank Sprague-Dawley rat plasma, at 5000, 2500, 1000, 500, 100, 50, 20, 10, 4, 2 and 1 ng/mL of compound. Three levels of the standard stock solutions (1000, 100 and 10 ng/mL) were spiked separately into male Sprague-Dawley rat plasma and used as QC samples. Plasma standards and QC samples were treated identically and prepared in parallel with the plasma samples. Extracted samples were analyzed by LC-MS/MS.
Mass spectrometer acquisition and integration were performed with Applied Biosystems-Sciex Analyst software (version 1.4.2). The calibration curve was obtained through a quadratic regression and the calibration range was 2-5000 ng/mL.
(§3) Instrument: • API 3000 mass spectrometer (Applied Biosystems, Foster City, Calif.) • Agilent 1100 HPLC binary pump (Santa Clara, Calif.) • LEAP Technologies HTS Pal Autosampler (Carrboro, N.C.) • Thermo Scientific Cohesive Aria LX-2 duplexing system (Waltham, Mass.) Column: Zorbax Eclipse XDB Phenyl 2.1×50 mm (Agilent, Santa Clara, Calif.) Injection Volume: 10 μL Flow Rate: 0.60 mL/min
Ionization Mode: Electrospray (ESI). Detection Mode: Positive MRM. For each dosing route, descriptive pharmacokinetic parameters were determined by a standard non-compartmental analysis (Wagner, 1993) from the plasma concentration-time curve. Pharmacokinetic analysis was performed by using XLFit® v.4.3.1 (ID Business Solutions Inc., Alameda, Calif.) in conjunction with Microsoft Excel 2003.

[3] = Pharmacokinetics of compound Ib in male beagle dogs (i.v. and oral); format: in vivo; conditions: Dog
Experimental: The pharmacokinetic profile of compound Ib was evaluated in male beagle dogs following intravenous (i.v.) and oral (p.o.) administration. A single dose of compound Ib was dosed intravenously at 0.5 mg/kg and orally at 2 mg/kg. Blood samples were collected at predetermined time points after each dosing and the corresponding plasma samples were analyzed using an LC-MS/MS method. Plasma concentration-time curves were constructed using the plasma concentrations and the corresponding pharmacokinetic parameters were derived by non-compartmental analysis.
Six animals weighing 11.5, 9.9, 9.9, 14.6, 11.1, and 9.8 kg, respectively, were used with Compound Ib dosed intravenously at 0.5 mg/kg (the first 3 animals) and orally at 2 mg/kg (the second 3 animals).
For i.v. dosing, a solution formulation of Compound Ib was prepared in 36.8% water/31.6% propylene glycol/31.6% N,N-dimethyl acetamide at 0.5 mg/mL and each animal received 1 mL/kg. For oral dosing at 2 mg/kg, a solution formulation was prepared in 1% hydroxypropyl methylcellulose at 0.5 mg/mL and each animal received 4 mL/kg.
For dosing, blood (˜1 mL) was drawn at pre-dose and at 5, 15, and 30 min, 1, 2, 4, 8, 12, and 24 hours post-dose. Blood was sampled from the foreleg vein via butterfly catheter and then placed into chilled polypropylene tubes containing K2EDTA as the anticoagulant and kept on ice until centrifugation. Plasma was collected through centrifugation and shipped on dry ice for sample analysis.
as §1, with “0.1% formic acid/acetonitrile” for “acetonitrile”
as §2, with “blank dog” for “blank Sprague-Dawley rat”, “of Compound Ib.” for “of compound.”, “male beagle dog” for “male Sprague-Dawley rat”, “samples.” for “samples. Extracted samples were analyzed by LC-MS/MS.”
Sample analysis was performed by LC-MS/MS (details shown below). Acquisition and peak integration were performed with the Applied Biosystems-Sciex Analyst software (version 1.4.2). Calibration curves were obtained through quadratic regression with a weighting of 1/x. The calibration range was 1-5000 ng/mL.
as §3, with “Instrument: • Applied Biosystems API 3000” for “Instrument: • API 3000”, “mass spectrometer (Foster City, Calif.)” for “mass spectrometer (Applied Biosystems, Foster City, Calif.)”
Ionization Mode: Turbo Ionspray ESI Detection Mode: Positive MRM For each dosing route, descriptive pharmacokinetic parameters were determined by a standard non-compartmental analysis (Wagner, 1993) from the plasma concentration-time curve. • CL: Total body clearance • AUC: area under the curve • F: Bioavailability.
Pharmacokinetic analysis was performed by using XLFit® v.4.3.1 (ID Business Solutions Inc., Alameda, Calif.) in conjunction with Microsoft Excel 2003.

[4] = ITT Patient Population (N = 50)
[5] = Pre-Specified Evaluable Patient Population (N = 41)
[6] = male, beagle, plasma, po, mean, N = 3, dosed at 2 mg/kg

Cc1cnc(C(=O)c2ccnc3[nH]ccc23)c(NS(=O)(=O)c2ccc(Cl)c(C(F)(F)F)c2)c1 [Compound Ib]
Tumor control rate [1, 4]: 32/50 (64%) | Tumor control rate ([1]; Pre-Specified Evaluable Patient Population (N = 41), includes stable disease, partial response and complete response): 32/41 (78%) | Progressive disease [1, 4]: 9/50 (18%) | Stable disease [1, 4]: 17/50 (34%) | Progressive disease [1, 5]: 9/41 (22%) | Stable disease [1, 5]: 17/41 (41%) | Overall response rate [1, 4]: 15/50 (30%) | Overall response rate [1, 5]: 15/41 (37%) | Tolerability ([1]; advanced pancreatic cancer patients, combined with FOLFIRINOX): well tolerated | Incidence and rate of adverse events ([1]; compound Ib combined with FOLFIRINOX, versus historical FOLFIRINOX alone): consistent with data reported historically for FOLFIRINOX alone | Clearance compared to PF-4136309 [2]: much lower | Exposure (AUC) compared to PF-4136309 [2]: much higher | clearance [2]: 11.5 mL/min/kg | bioavailability [2]: 133% | AUC [2]: 3910 ng·h/mL | Clearance compared to PF-4136309 ([3]; at comparable doses): much lower | Exposure (AUC) compared to PF-4136309 ([3]; at comparable doses): much higher | clearance ([3]; male, beagle, plasma, iv, mean, N = 3, dosed at 0.5 mg/kg): 0.7 mL/min/kg | AUC [3, 6]: 67000 ng·h/mL | bioavailability [3, 6]: 143%

O=C(NCC(=O)N1CC[C@H](N[C@H]2CC[C@@](O)(c3ccc(-c4ncccn4)cn3)CC2)C1)c1cccc(C(F)(F)F)c1 [PF-04136309, reference compound]
clearance [2]: 71.1 mL/min/kg | bioavailability [2]: 22% | AUC [2]: 111 ng·h/mL
